Experimental data: patent US20240292837A1, “CHROMONE DERIVATIVES AS ATTRACTANTS AND REPELLENTS OF BLOOD-SUCKING, BITING INVERTEBRATES” (CENTRE NATIONAL DE LA RECHERCHE SCIENTIFIQUE, priority 2021, published 2024)

System: Aedes albopictus
Assay: Evaluation of the repellent and/or attractant effect in a tunnel olfactometer
Type: in vivo
Details: for Repulsion index 5 mg deposition / Repulsion index 10 mg deposition / Repulsion index 30 mg deposition / RI (%) repulsion index / KI (%) kairomone index: negative = attractant; for Control (±SD), mean number of mosquitoes in the control zone / Treated/Product (±SD), mean number of mosquitoes in the treated zone / Treated (±SD), mean number of mosquitoes in the treated zone: 15 females; for repellent or attractant effect (in words): over the doses tested; for repellent effect compared with Picaridin and DEET (in words): equivalent/identical doses (10 and 30 mg/ml)
Excerpt: The tunnel olfactometer is a 1 m long glass parallelepiped with a 5×5 cm side. The tube is equipped with 3 openings: two on each side, one for feeding in the paper impregnated with the product to be tested, and the other for the paper containing a control. The opening in the middle is for feeding in mosquitoes. Both ends of the tube are closed by covers.
The olfactometer is divided into three compartments or zones: • a neutral zone in the middle; • a test or treated area which is on the side of depositing the product; and • a control area which is located on the side of depositing the control.
For each test, 15 Aedes albopictus females (aged 5 to 12 days) are fed into the neutral zone of the tunnel olfactometer. Mosquitoes are kept for 10 minutes for a time of adaptation. Papers impregnated and dried with a solution of product in ethanol and pure ethanol as a reference are fed in, then the barriers are opened to allow mosquitoes to circulate freely inside the tube. Three test repetitions were carried out for each product. A repetition lasts 20 minutes and the results observed were recorded every 5 minutes.
The values measured are the activity index and the repulsion index. The activity index (Al) describes the percentage of mosquitoes in the control zone (T) and in the treated zone (P) with respect to the total number of mosquitoes tested. Said value should be greater than 30% for the test to be considered significant.
The repulsion index (RI) represents the percentage of the difference in the number of mosquitoes in the control part and in the treated part divided by the sum of the two values. A negative value of the parameter (RI) indicates an attractant activity (kairomone index. KI) of the product tested.
[formula] • Al: Activity index • RI: Repulsion index • T: Number of mosquitoes in the control area • P: Number of mosquitoes in the treated area

Row | Compound | Repulsion index 5 mg deposition | Repulsion index 10 mg deposition | Repulsion index 30 mg deposition | AI (%) activity index (dose 5 mg/ml) | Control (±SD), mean number of mosquitoes in the control zone (dose 5 mg/ml in treated zone) | Treated/Product (±SD), mean number of mosquitoes in the treated zone (dose 5 mg/ml) | RI (%) repulsion index (dose 5 mg/ml) | AI (%) activity index (dose 10 mg/ml) | Control (±SD), mean number of mosquitoes in the control zone (dose 10 mg/ml in treated zone) | Treated/Product (±SD), mean number of mosquitoes in the treated zone (dose 10 mg/ml) | RI (%) repulsion index (dose 10 mg/ml) | AI (%) activity index (dose 30 mg/ml) | Control (±SD), mean number of mosquitoes in the control zone (dose 30 mg/ml in treated zone) | Treated/Product (±SD), mean number of mosquitoes in the treated zone (dose 30 mg/ml) | RI (%) repulsion index (dose 30 mg/ml) | AI (%) activity index (dose 60 mg/ml) | Control (±SD), mean number of mosquitoes in the control zone (dose 60 mg/ml in treated zone) | Treated/Product (±SD), mean number of mosquitoes in the treated zone (dose 60 mg/ml) | RI (%) repulsion index (dose 60 mg/ml) | repellent or attractant effect (in words) | other results
1 | C=CC(O)CCCCC (stereo not shown) [Octen-3-ol, octen-3-ol, reference compound] | −41.7% | −54.7% | −61.6% | – | – | – | – | – | – | – | – | – | – | – | – | – | – | – | – | – | –
2 | CCC(C)OC(=O)N1CCCCC1CCO (stereo not shown) [Picaridin, reference compound] | 42.6% | 49.6% | 59.7% | – | – | – | – | – | – | – | – | – | – | – | – | – | – | – | – | – | –
3 | CC[C@H](C)Oc1ccc2c(=O)ccoc2c1 [S-(+)-sec-butoxychromone] | – | – | – | 91.7% | 4.8 ± 0.5 | 9.0 ± 0.2 | −31.2% | 87.2% | 4.2 ± 0.9 | 8.9 ± 1.1 | −35.8% | 83.3% | 9.3 ± 0.8 | 3.3 ± 0.2 | 47.9% | 89.4% | 11.4 ± 0.8 | 2.0 ± 0.0 | 70.5% | attractant at low doses and repellent at high doses | –
4 | CCC[C@H](C)Oc1ccc2c(=O)ccoc2c1 [S-(+)-sec-pentoxychromone] | – | – | – | 83.9% | 3.1 ± 1.2 | 9.5 ± 0.7 | – | 95% | 5.8 ± 0.2 | 8.4 ± 0.1 | – | 77.8% | 5.2 ± 0.3 | 6.5 ± 0.7 | – | – | – | – | – | attractant | AI (%) activity index (dose 1 mg/ml): 93.3%; Control (±SD), mean number of mosquitoes in the control zone (dose 1 mg/ml in treated zone): 3.8 ± 0.3; Treated (±SD), mean number of mosquitoes in the treated zone (dose 1 mg/ml): 10.3 ± 0.7; KI (%) kairomone index (dose 1 mg/ml): −46.3%; KI (%) kairomone index (dose 5 mg/ml): −52.4%; KI (%) kairomone index (dose 10 mg/ml): −18.2%; KI (%) kairomone index (dose 30 mg/ml): −10.7%
5 | R-(−)-sec-butoxychromone | 51% | 65.6% | 79.5% | 84% | 9.5 ± 0.3 | 3.1 ± 0.1 | 51.3% | 88.9% | 11 ± 0.3 | 2.3 ± 0.7 | 65.6% | 92.2% | 12.4 ± 0.1 | 1.4 ± 0.1 | 79.5% | 92% | 12.2 ± 0.1 | 1.6 ± 0.2 | 76.6% | repellent at any dose | repellent effect compared with Picaridin and DEET (in words) (listed as (R) 7-sec-butoxychromone): as effective and more effective than Picaridin and DEET; repellent effect compared with Picaridin and DEET (in words) (listed as enantiomer R): as significant as DEET and picaridin
6 | R-(−)-sec-pentoxychromone | – | – | – | 86.7% | 2.2 ± 0.4 | 10.8 ± 0.6 | – | 81.1% | 3.6 ± 0.4 | 8.6 ± 0.1 | – | 90% | 6.6 ± 0.4 | 6.9 ± 0.3 | – | – | – | – | – | attractant | AI (%) activity index (dose 1 mg/ml): 92.2%; Control (±SD), mean number of mosquitoes in the control zone (dose 1 mg/ml in treated zone): 5.3 ± 0.3; Treated (±SD), mean number of mosquitoes in the treated zone (dose 1 mg/ml): 8.6 ± 0.2; KI (%) kairomone index (dose 1 mg/ml): −24.3%; KI (%) kairomone index (dose 5 mg/ml): −66.6%; KI (%) kairomone index (dose 10 mg/ml): −47.1%; KI (%) kairomone index (dose 30 mg/ml): −2.8%
